Test results from patent US10477865B2, “Fungicidal compounds and methods of their use” (Auckland UniServices Limited, priority 2009, dated 2019).

Key:
[1] = Stability tests (absorbance at 428 nm in different testing solutions); assay type: physicochemical
Method: Stability was determined by re-suspending between 0.3 to 0.5 mg/mL of purified pigmented compound of Formula (IV) in different testing solutions according to Table 1, and measuring the absorbance at 428 nm every 24 hours for fifteen days. The test samples were kept in glass vials under constant incandescent light (except for the temperature stability test).

Solubility = assay type: physicochemical; details: in water and polar organic solvents such as methanol, and ethanol
[2] = FRAP (ferric reducing antioxidant power) assay; details: compared with ascorbic acid; data not shown
[3] = Phosphomolybdenum antioxidant assay; details: compared with ascorbic acid; data not shown
[4] = Radical scavenging ability; details: compared with ascorbic acid; data not shown
B. cinera ICMP16621 [5] = experiment: Agar diffusion assay, inhibition of mycelial growth; assay type: cell-based, Botrytis cinera; details: HPLC purified; YPD agar, 25° C., 5 days; data not shown
[6] = tested on: S. sclerotiorum ICMP13844; experiment: as above; assay type: cell-based, Sclerotinia sclerotiorum; details: HPLC purified; YPD agar, 25° C., 5 days; data not shown
A. supraseptata SVB-F2 = experiment: as above; assay type: cell-based, Apiognomonia supraseptata; details: HPLC purified; YPD agar, 25° C., 5 days; data not shown
Candida albicans SC5614 = experiment: Agar diffusion assay, antimicrobial activity; assay type: cell-based; details: data not shown
Candida utilis 02/D00981 = experiment: Agar diffusion assay, antimicrobial activity; assay type: cell-based; details: data not shown
[7] = tested on: Saccharomyces cerevisiae BM45; experiment: Agar diffusion assay, antimicrobial activity; assay type: cell-based; details: data not shown
[8] = tested on: Staphylococcus epidermis SVB-B12; experiment: Agar diffusion assay, antimicrobial activity; assay type: cell-based; details: data not shown
Escherichia coli SVB-B11 = experiment: Agar diffusion assay, antimicrobial activity; assay type: cell-based; details: data not shown
[9] = tested on: Pseudomonas aeruginosa SVB-B10; assay type: cell-based; details: agar diffusion; data not shown
B. cinera ICMP16621 [10] = experiment: Inhibition of spore germination; assay type: cell-based, Botrytis cinera
[11] = tested on: S. sclerotiorum ICMP13844; experiment: Inhibition of spore germination; assay type: cell-based, Sclerotinia sclerotiorum
A. alternata ICMP1099-96 = experiment: Inhibition of spore germination; assay type: cell-based, Alternaria alternata
P. viticola ICMP5537 = experiment: Inhibition of spore germination; assay type: cell-based, Phomopsis viticola
R. solani ICMP11620 = assay type: cell-based, Rhizoctonia solani
M. grisea ICMP14481 = assay type: cell-based, Magnaporthe grisea
[12] = tested on: S. cepivorum ICMP10916-91; experiment: Inhibition of spore germination; assay type: cell-based, Sclerotium cepivorum
[13] = tested on: V. inaequalis ICMP4095-96; experiment: Inhibition of spore germination; assay type: cell-based, Venturia inaequalis
[14] = tested on: M. graminicola ICMP12504-95; assay type: cell-based, Mycosphaerella graminicola
[15] = Stability tests (absorbance at 428 nm in different testing solutions); assay type: physicochemical; details: after 10 days
[16] = Stability to common acids: Acetic acid
[17] = Stability to common acids: Malic acid
[18] = Stability to common alkalis: NaHCO3 10% w/w
[19] = Stability to microwave radiation: 5 min, domestic microwave (1000 W)
[20] = Stability to presence of sugars: Sucrose 10% w/w
[21] = Stability to temperature: 4° C. in methanol
[22] = Stability to temperature: 4° C. in water
[23] = Stability to temperature: 60° C. in methanol
[24] = Stability to temperature: 60° C. in water
[25] = Stability to temperature: 100° C. in water
[26] = Stability to temperature: −20° C. in methanol
[27] = Stability to temperature: −20° C. in water
[28] = all three concentrations tested: 2.7, 1.3 and 0.7 mg·mL-1

## CCC(C)CC(C)/C=C(/C=C(C)/C=C/C=C/C=C/C=C/C=C/C=C/C1=C(C(=O)O)C2OOC(CO)C(O)C(O1)C2O)C(=O)O (single isomer, unassigned) [Compound 1, Epicoccaene]
[1]
  Resistance to temperature and microwave radiation: resistant
[1]; [16]
  Initial absorbance (428 nm): 1.61
[1]; Stability to common acids: Citric acid
  Initial absorbance (428 nm): 1.53
[1]; Stability to common acids: Citric acid, after 10 days
  Final absorbance (428 nm): 0.51
[1]; Stability to common acids: Lactic acid
  Initial absorbance (428 nm): 1.52
[1]; Stability to common acids: Lactic acid, after 10 days
  Final absorbance (428 nm): 0.68
[1]; [17]
  Initial absorbance (428 nm): 1.53
[1]; Stability to common alkalis: Na2CO3 10% w/w
  Initial absorbance (428 nm): 2.13
[1]; Stability to common alkalis: Na2CO3 10% w/w, after 10 days
  Final absorbance (428 nm): 2.12
[1]; [18]
  Initial absorbance (428 nm): 2.08
[1]; Stability to common alkalis: NaOH 10% w/w
  Initial absorbance (428 nm): 2.05
[1]; Stability to common alkalis: NaOH 10% w/w, after 10 days
  Final absorbance (428 nm): 2.04
[1]; Stability to light: In ethanol 5% v/v
  Initial absorbance (428 nm): 2.04
[1]; Stability to light: In ethanol 5% v/v, after 10 days
  Final absorbance (428 nm): 2.04
[1]; Stability to light: In methanol
  Initial absorbance (428 nm): 2.04
[1]; Stability to light: In methanol, after 10 days
  Final absorbance (428 nm): 2.04
[1]; Stability to light: In water
  Initial absorbance (428 nm): 2.05
[1]; Stability to light: In water, after 10 days
  Final absorbance (428 nm): 1.82
[1]; [19]
  Final absorbance (428 nm): 2.04
  Initial absorbance (428 nm): 2.05
[1]; Stability to presence of sugars: Dextrose 10% w/w
  Initial absorbance (428 nm): 2.08
[1]; Stability to presence of sugars: Dextrose 10% w/w, after 10 days
  Final absorbance (428 nm): 2.08
[1]; Stability to presence of sugars: Fructose 10% w/w
  Initial absorbance (428 nm): 2.02
[1]; Stability to presence of sugars: Fructose 10% w/w, after 10 days
  Final absorbance (428 nm): 2.03
[1]; [20]
  Initial absorbance (428 nm): 2.08
[1]; [21]
  Final absorbance (428 nm): 2.03
  Initial absorbance (428 nm): 2.05
[1]; [22]
  Final absorbance (428 nm): 2.06
  Initial absorbance (428 nm): 2.08
[1]; [23]
  Final absorbance (428 nm): 2.04
  Initial absorbance (428 nm): 2.05
[1]; [24]
  Final absorbance (428 nm): 2.06
  Initial absorbance (428 nm): 2.08
[1]; [25]
  Final absorbance (428 nm): 2.07
  Initial absorbance (428 nm): 2.08
[1]; [26]
  Final absorbance (428 nm): 2.06
  Initial absorbance (428 nm): 2.05
[1]; [27]
  Final absorbance (428 nm): 2.07
  Initial absorbance (428 nm): 2.08
[1]; acidic conditions, colour changes from bright yellow to pale orange
  Stability under acidic conditions: unstable
[1]; dissolved in water at neutral pH
  Light sensitivity: moderate light sensitivity
[1]; in water at pH 8.0 or higher, in methanol or in sugar solutions (10% w/w)
  Resistance to light: resistance to light increased
[1]; organic acids (10% w/w)
  Degradation in solution of organic acids: pronounced degradation
[1]; pH stability, pH 3, after 10 days, constant incandescent light
  Final absorbance (428 nm): 1.45
[1]; pH stability, pH 3, constant incandescent light
  Initial absorbance (428 nm): 1.46
[1]; pH stability, pH 5, after 10 days, constant incandescent light
  Final absorbance (428 nm): 1.67
[1]; pH stability, pH 5, constant incandescent light
  Initial absorbance (428 nm): 1.67
[1]; pH stability, pH 7, after 10 days, constant incandescent light
  Final absorbance (428 nm): 2.05
[1]; pH stability, pH 7, constant incandescent light
  Initial absorbance (428 nm): 2.05
[1]; pH stability, pH 8, after 10 days, constant incandescent light
  Final absorbance (428 nm): 2.08
[1]; pH stability, pH 8, constant incandescent light
  Initial absorbance (428 nm): 2.09
[1]; pH stability, pH 10, after 10 days, constant incandescent light
  Final absorbance (428 nm): 2.09
[1]; pH stability, pH 10, constant incandescent light
  Initial absorbance (428 nm): 2.09
Solubility
  Solubility: readily soluble
[2]
  Antioxidant power by FRAP: comparable to those of ascorbic acid
[3]
  Antioxidant power by phosphomolybdenum assay: comparable to those of ascorbic acid
[4]
  Radical scavenging ability: comparable to those of ascorbic acid
B. cinera ICMP16621 [5]
  Activity against mycelial growth (zone of inhibition): strong activity
[6]
  Activity against mycelial growth (zone of inhibition): strong activity
A. supraseptata SVB-F2
  Activity against mycelial growth (zone of inhibition): strong activity
Candida albicans SC5614
  Antimicrobial activity: No antimicrobial activity
Candida utilis 02/D00981
  Antimicrobial activity: No antimicrobial activity
[7]
  Antimicrobial activity: No antimicrobial activity
[8]
  Antimicrobial activity: No antimicrobial activity
Escherichia coli SVB-B11
  Antimicrobial activity: No antimicrobial activity
[9]
  Antimicrobial activity: No antimicrobial activity
B. cinera ICMP16621 [10]; [28]
  Inhibition of spore germination: completely inhibit
B. cinera ICMP16621 [10]; incubation in rich culture medium for 10 days, data not shown
  Inhibition of spore germination: completely inhibit
B. cinera ICMP16621 [10]; spore germination
  minimal inhibition dose (MID): below 0.7 mg/mL
[11]; [28]
  Inhibition of spore germination: completely inhibit
[11]; spore germination
  minimal inhibition dose (MID): below 0.7 mg/mL
A. alternata ICMP1099-96; [28]
  Inhibition of spore germination: completely inhibit
A. alternata ICMP1099-96; spore germination
  minimal inhibition dose (MID): below 0.7 mg/mL
P. viticola ICMP5537; [28]
  Inhibition of spore germination: completely inhibit
P. viticola ICMP5537; spore germination
  minimal inhibition dose (MID): below 0.7 mg/mL
R. solani ICMP11620
  minimal inhibition dose (MID): below 0.7 mg/mL
R. solani ICMP11620; [28]
  Inhibition of spore germination: completely inhibit
M. grisea ICMP14481; [28]
  Inhibition of spore germination: completely inhibit
M. grisea ICMP14481; spore germination
  minimal inhibition dose (MID): below 0.7 mg/mL
[12]; [28]
  Inhibition of spore germination: completely inhibit
[12]; spore germination
  minimal inhibition dose (MID): below 0.7 mg/mL
[13]; [28]
  Inhibition of spore germination: completely inhibit
[13]; spore germination
  minimal inhibition dose (MID): below 0.7 mg/mL
[14]
  Inhibition of spore germination: resistant
[15]; [16]
  Final absorbance (428 nm): 0.66
[15]; [17]
  Final absorbance (428 nm): 0.38
[15]; [18]
  Final absorbance (428 nm): 2.08
[15]; [20]
  Final absorbance (428 nm): 2.07
